In ChEMBL document CHEMBL2150879, “Novel indolethylbenzamides for the treatment of tauopathies: patent highlight” (ACS Med Chem Lett, 2012):

Assay: Inhibition of Tau P301L mutant-mediated cytotoxicity in human M17 cells by LDH assay
Type: cell-based

Question: Which EC50 does the source give for `O=C(NCCc1c[nH]c2ccc(Cl)cc12)c1cccc(Cc2ccccc2)c1` here?
Answer: 0.078 µM

Question: For `O=C(NCCc1c[nH]c2ccc(F)cc12)c1ccc(Cn2ccnc2)cc1`, which EC50 is on record?
Answer: 0.486 µM

Question: For `O=C(NCCc1c[nH]c2ccc(Cl)cc12)c1cccc(Nc2ccccc2)c1`, which EC50 is on record?
Answer: 0.094 µM

Question: For `N#Cc1ccc(Cc2ccc(C(=O)NCCc3c[nH]c4ccc(Cl)cc34)cc2)cc1`, which EC50 is on record?
Answer: 0.016 µM

Question: For `N#Cc1cccc(Cc2ccc(C(=O)NCCc3c[nH]c4ccc(Cl)cc34)cc2)c1`, which EC50 is on record?
Answer: 0.014 µM

Question: For `O=C(NCCc1c[nH]c2ccc(Cl)cc12)c1ccc(Cc2cccc(Cl)c2)cc1`, which EC50 is on record?
Answer: 0.007 µM

Question: For `O=C(NCCc1c[nH]c2ccc(Cl)cc12)c1ccc(Cc2cccc(F)c2)cc1`, which EC50 is on record?
Answer: 0.013 µM

Question: With `COc1ccc(Cc2ccc(C(=O)NCCc3c[nH]c4ccc(Cl)cc34)cc2)cc1` as the compound, how does the EC50 read?
Answer: 0.147 µM

Question: Which EC50 does the source give for `O=C(NCCc1c[nH]c2ccc(Cl)cc12)c1cccc(Cc2cncc(F)c2)c1` here?
Answer: 0.09 µM
